The values that follow come from patent US10501481B2, “Heterocyclic compounds and their use in preventing or treating bacterial infections” (priority 2015, dated 2019).

For assay [1], the system named is K. pneumoniae BAA-1898 (TEM-1, SHV-11, SHV-12, KPC-2). As to the kind of experiment: microbe, parasite or virus in culture. The assay is classed as cell-based. Conditions: for MIC: Klebsiella pneumoniae; for MIC of CAZ in combination with compound at 4 μg/mL: strain BAA-1898, compound fixed at 4 μg/mL.
In assay [2] the test system is E. cloacae 260508 (TEM-1, CTX-M-15). As to the kind of experiment: MIC broth microdilution, alone and synergy with ceftazidime. Conditions: Enterobacter cloacae, read-out: MIC CAZ. For orientation: Dilution methods test growth across graded concentrations, often in twofold steps.
The test system of assay [3] is E. coli UFR61O (TEM-1, KPC-2). The description is as above. Conditions: Escherichia coli, read-out: MIC CAZ.
Assay [4] deals with K. pneumoniae 160143 (TEM-1, SHV-1, CTX-M-15, KPC-2, OXA-1). Described as above. As to conditions: Klebsiella pneumoniae, read-out: MIC CAZ.
Assay [5] has as its system K. pneumoniae UFR68 (TEM-1, SHV-11, CTX-M-15, KPC-3). The description is as above. As to conditions: Klebsiella pneumoniae, read-out: MIC CAZ.
Assay [6] relates to E. cloacae P99 (AmpC). Described as above. As to conditions: for MIC: Enterobacter cloacae; for MIC of CAZ in combination with compound at 4 μg/mL: strain P99, compound fixed at 4 μg/mL.
For assay [7], the system named is E. cloacae UFR70 (TEM-1, CTX-M-15, CMY-2, OXA-1, Porin loss). Described as above. Conditions: Enterobacter cloacae, read-out: MIC CAZ.
The subject of assay [8] is K. pneumoniae UFR77 (CMY-2). Described as above. As to conditions: Klebsiella pneumoniae, read-out: MIC CAZ.
The test system of assay [9] is E. coli UFR74 (SHV-1, DHA-1). Described as above. As to conditions: Escherichia coli, read-out: MIC CAZ.
Assay [10] relates to E. coli UFR18 (CTX-M-15, OXA-204). Described as above. Conditions: Escherichia coli, read-out: MIC CAZ.
The test system of assay [11] is E. coli 131119 (TEM-1, OXA-48). The assay is described as above. As to conditions: Escherichia coli.
For assay [12], the system named is K. oxytoca UFR21 (TEM-1, CTX-M-15, OXA-48). Described as above. Conditions: Klebsiella oxytoca, read-out: MIC CAZ.
In assay [13] the test system is K. pneumoniae UFR24 (TEM-1, SHV-2, SHV-11, OXA-1, OXA-48, OXA-47). The assay is described as above. Conditions: Klebsiella pneumoniae, read-out: MIC CAZ.
The test system of assay [14] is K. pneumoniae 6299 (TEM-1, SHV-11, OXA-163). The description is as above. Conditions: for MIC: Klebsiella pneumoniae.
The subject of assay [15] is E. coli RGN238 (OXA-1). The assay is described as above. Conditions: Escherichia coli.
Assay [16] concerns K. pneumoniae 200047 (TEM-1, SHV-32, CTX-M-15, OXA-1). Described as above. Conditions: Klebsiella pneumoniae, read-out: MIC CAZ.
Assay [17] has as its system E. coli 190317 (TEM-1, SHV-12, CTX-M-15, OXA-1). Described as above. Conditions: for MIC: Escherichia coli; for MIC of CAZ in combination with compound at 4 μg/mL: strain 190317, compound fixed at 4 μg/mL.
Assay [18] deals with E. coli UFR32 (TEM-1, VEB-1, OXA-10). Described as above. As to conditions: Escherichia coli, read-out: MIC CAZ.
Assay [19] deals with E. cloacae UFR38 (CTX-M-15, NDM-1). The description is as above. Conditions: Enterobacter cloacae, read-out: MIC CAZ.
For assay [20], the system named is C. murliniae 210102 (VIM-4). Described as above. Conditions: read-out: MIC CAZ.
For assay [21], the system named is E. coli UFR52 (TEM-1, SHV-12, IMP-8). The assay is described as above. As to conditions: Escherichia coli, read-out: MIC CAZ.
The test system of assay [22] is P. aeruginosa CIP107051 (TEM-24). The assay is described as above. Conditions: for MIC: Pseudomonas aeruginosa; for MIC of CAZ in combination with compound at 4 μg/mL: strain CIP107051, compound fixed at 4 μg/mL.
In assay [23] the test system is P. aeruginosa UFR35 (OXA-23). Described as above. As to conditions: Pseudomonas aeruginosa, read-out: MIC CAZ.
Assay [24] relates to P. aeruginosa UFR90 (derepressed AmpC, OprD−). Described as above. As to conditions: Pseudomonas aeruginosa, read-out: MIC CAZ.
Assay [25] relates to P. aeruginosa UFR92 (derepressed AmpC, OprD−). The description is as above. Conditions: Pseudomonas aeruginosa, read-out: MIC CAZ.
Assay [26] deals with T1, TEM-1 (Escherichia coli, UniProt P62593).
T1 construct: made in house; host or cells: E. coli
The assay is described as follows: β-lactamase inhibitory activity, nitrocefin hydrolysis. It is filed as biochemical. Conditions: class (A); 30 min pre-incubation; nitrocefin 200 μM.
Protocol: (§1) Enzyme activity was monitored by spectrophotometric measurement of nitrocefin (NCF-TOKU-E, N005) hydrolysis at 485 nm, at room temperature and in assay buffer A: 100 mM Phosphate pH7, 2% glycerol and 0.1 mg/mL Bovine serum albumin (Sigma, B4287). […] To a transparent polystyrene plate (Corning, 3628) were added in each well 5 μL DMSO or inhibitor dilutions in DMSO and 80 μL enzyme in buffer A. Plates were immediately read at 485 nm in a microplate spectrophotometer (BioTek, PowerWave HT) to enable background subtraction. After 30 min of pre-incubation at room temperature, 15 μL of NCF (200 μM final) were finally added in each well. Final enzyme concentrations were 0.1 nM (TEM-1), 0.075 nM (SHV-1), 0.4 nM (CTX-M-15), 1 nM (KPC-2), 0.2 nM (P99 AmpC), 0.2 nM (CMY-37), 0.4 nM (AmpC P. aeruginosa), 0.2 nM (OXA-1), 1.2 nM (OXA-11), 0.4 nM (OXA-15) and 0.3 nM (OXA-48). After 20 min incubation at room temperature, plates were once again read at 485 nm. Enzyme activity was obtained by subtracting the final signal by the background, and was converted to enzyme inhibition using non inhibited wells. IC50 curves were fitted to a classical Langmuir equilibrium model with Hill slope using XLFIT (IDBS).

Assay [27] deals with T2, SHV-1 (Klebsiella pneumoniae, UniProt P0AD64).
T2 construct: made in house; host or cells: E. coli
The description is as above. The assay is classed as biochemical.
Protocol: as §1

The target of assay [28] is T3, CTX-M-15 (Escherichia coli, UniProt Q9EXV5).
T3 construct: made in house; host or cells: E. coli
The assay is described as above. The assay is classed as biochemical.
Protocol: as §1

The target of assay [29] is T4, KPC-2 (Klebsiella pneumoniae, UniProt Q9F663).
T4 construct: made in house; host or cells: E. coli
The assay is described as above. It is filed as biochemical.
Protocol: as §1

Assay [30] has as its target T5, P99 AmpC (Enterobacter cloacae, UniProt P05364).
T5 construct: made in house; host or cells: E. coli
Described as above. The assay is classed as biochemical. Conditions: class (C); 30 min pre-incubation; nitrocefin 200 μM.
Protocol: as §1

Assay [31] concerns the target AmpC P. aeruginosa (Pseudomonas aeruginosa, UniProt P24735). The assay is described as follows: biochemical. On the procedure:
Enzyme activity was monitored by spectrophotometric measurement of nitrocefin (NCF-TOKU-E, N005) hydrolysis at 485 nm, at room temperature and in assay buffer A: 100 mM Phosphate pH7, 2% glycerol and 0.1 mg/mL Bovine serum albumin (Sigma, B4287). Enzymes were cloned in E. coli expression vector, expressed and purified in house using classical procedures. To a transparent polystyrene plate (Corning, 3628) were added in each well 5 μL DMSO or inhibitor dilutions in DMSO and 80 μL enzyme in buffer A. Plates were immediately read at 485 nm in a microplate spectrophotometer (BioTek, PowerWave HT) to enable background subtraction. After 30 min of pre-incubation at room temperature, 15 μL of NCF (200 μM final) were finally added in each well. Final enzyme concentrations were 0.1 nM (TEM-1), 0.075 nM (SHV-1), 0.4 nM (CTX-M-15), 1 nM (KPC-2), 0.2 nM (P99 AmpC), 0.2 nM (CMY-37), 0.4 nM (AmpC P. aeruginosa), 0.2 nM (OXA-1), 1.2 nM (OXA-11), 0.4 nM (OXA-15) and 0.3 nM (OXA-48). After 20 min incubation at room temperature, plates were once again read at 485 nm. Enzyme activity was obtained by subtracting the final signal by the background, and was converted to enzyme inhibition using non inhibited wells. IC50 curves were fitted to a classical Langmuir equilibrium model with Hill slope using XLFIT (IDBS).

Assay [32] addresses T6, OXA-1 (Escherichia coli, UniProt P13661).
T6 construct: made in house; host or cells: E. coli
The assay is described as follows: β-lactamase inhibitory activity, nitrocefin hydrolysis. The assay is classed as biochemical.
Protocol: as §1

Assay [33] addresses T7, OXA-11 (Pseudomonas aeruginosa, UniProt Q06778).
T7 construct: made in house; host or cells: E. coli
Described as above. The assay is classed as biochemical.
Protocol: as §1

Assay [34] has as its target T8, OXA-15 (Pseudomonas aeruginosa, UniProt Q51574).
T8 construct: made in house; host or cells: E. coli
The assay is described as above. The assay is classed as biochemical.
Protocol: as §1

In assay [35] the target is T9, OXA-48 (Klebsiella pneumoniae, UniProt Q6XEC0).
T9 construct: made in house; host or cells: E. coli
The description is as above. It is filed as biochemical.
Protocol: as §1

For assay [36], the system named is P. aeruginosa CIP105250 (OXA-15). As to the kind of experiment: MIC broth microdilution, compounds alone. As to conditions: Pseudomonas aeruginosa, CIP105250, read-out: MIC compounds of the invention alone.
[37] abbreviates: BAA1898, read-out: MIC compounds of the invention alone.
Setting [38] is: read-out: MIC compounds of the invention alone.
The mark [39] stands for this setting: CIP107051, read-out: MIC compounds of the invention alone.

Molecules are shown by their SMILES. pIC50: −log10 of the molar value. ≈ marks a conversion by molar mass, not a printed value. Like-named read-outs stand apart in the source and are kept apart here.

Chain of AmpC P. aeruginosa (P24735 27-397): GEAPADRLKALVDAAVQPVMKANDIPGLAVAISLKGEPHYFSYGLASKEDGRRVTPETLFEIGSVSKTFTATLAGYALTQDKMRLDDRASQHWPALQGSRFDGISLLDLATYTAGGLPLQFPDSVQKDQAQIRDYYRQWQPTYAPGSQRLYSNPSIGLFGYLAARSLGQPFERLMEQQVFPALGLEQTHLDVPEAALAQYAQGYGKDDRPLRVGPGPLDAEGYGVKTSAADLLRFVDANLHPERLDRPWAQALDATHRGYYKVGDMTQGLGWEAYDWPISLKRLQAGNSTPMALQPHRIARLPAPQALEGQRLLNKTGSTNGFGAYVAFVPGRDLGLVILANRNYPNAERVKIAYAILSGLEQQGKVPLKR
T8 sequence (Q51574 22-275): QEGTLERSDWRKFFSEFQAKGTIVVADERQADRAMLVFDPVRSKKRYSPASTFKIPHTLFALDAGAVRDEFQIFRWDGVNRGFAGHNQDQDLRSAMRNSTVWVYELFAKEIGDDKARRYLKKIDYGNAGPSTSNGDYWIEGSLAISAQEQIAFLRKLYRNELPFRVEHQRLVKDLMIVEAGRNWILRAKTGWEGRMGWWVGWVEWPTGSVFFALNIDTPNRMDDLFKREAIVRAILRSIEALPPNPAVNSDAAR
T3 sequence (Q9EXV5 entry or part of it): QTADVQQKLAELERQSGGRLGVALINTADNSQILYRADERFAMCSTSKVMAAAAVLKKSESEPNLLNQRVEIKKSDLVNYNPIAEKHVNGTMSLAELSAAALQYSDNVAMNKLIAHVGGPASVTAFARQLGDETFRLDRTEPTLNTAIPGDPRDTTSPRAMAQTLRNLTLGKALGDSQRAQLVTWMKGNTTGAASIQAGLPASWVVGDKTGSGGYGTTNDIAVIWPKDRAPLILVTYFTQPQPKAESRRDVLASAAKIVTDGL
T5 sequence (P05364 21-381): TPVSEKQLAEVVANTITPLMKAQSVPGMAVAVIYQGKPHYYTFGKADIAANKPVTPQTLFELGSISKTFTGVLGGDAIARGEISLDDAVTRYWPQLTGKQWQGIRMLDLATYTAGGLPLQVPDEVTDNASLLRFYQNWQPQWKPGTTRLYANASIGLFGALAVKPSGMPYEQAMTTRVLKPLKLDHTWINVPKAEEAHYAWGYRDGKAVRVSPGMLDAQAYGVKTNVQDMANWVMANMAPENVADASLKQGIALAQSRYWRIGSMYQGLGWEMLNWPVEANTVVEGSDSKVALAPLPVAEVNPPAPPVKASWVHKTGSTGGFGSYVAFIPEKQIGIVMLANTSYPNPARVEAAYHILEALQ
T6 sequence (P13661 26-276): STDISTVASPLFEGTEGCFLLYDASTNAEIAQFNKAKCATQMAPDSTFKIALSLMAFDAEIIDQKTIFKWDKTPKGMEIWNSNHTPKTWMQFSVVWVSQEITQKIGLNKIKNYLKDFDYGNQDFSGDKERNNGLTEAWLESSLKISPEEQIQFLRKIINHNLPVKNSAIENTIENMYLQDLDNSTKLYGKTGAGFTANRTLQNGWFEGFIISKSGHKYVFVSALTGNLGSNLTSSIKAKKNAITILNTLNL
T1 sequence (P62593 24-286 limits assumed): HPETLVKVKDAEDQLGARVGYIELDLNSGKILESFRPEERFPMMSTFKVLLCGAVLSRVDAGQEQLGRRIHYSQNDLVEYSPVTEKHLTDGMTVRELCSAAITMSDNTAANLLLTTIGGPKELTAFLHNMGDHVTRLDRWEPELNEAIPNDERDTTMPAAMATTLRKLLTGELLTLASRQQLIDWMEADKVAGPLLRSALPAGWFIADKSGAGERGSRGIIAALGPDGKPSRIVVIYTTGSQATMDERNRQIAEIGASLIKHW
T2 sequence (P0AD64 22-286): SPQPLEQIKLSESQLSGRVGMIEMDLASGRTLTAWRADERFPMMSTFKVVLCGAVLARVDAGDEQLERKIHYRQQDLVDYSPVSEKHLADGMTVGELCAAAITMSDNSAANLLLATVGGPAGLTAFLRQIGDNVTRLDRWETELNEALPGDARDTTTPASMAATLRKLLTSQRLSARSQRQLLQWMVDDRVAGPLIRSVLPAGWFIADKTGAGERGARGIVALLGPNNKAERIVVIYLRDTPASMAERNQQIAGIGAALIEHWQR
T4 sequence (Q9F663 25-293 limits assumed): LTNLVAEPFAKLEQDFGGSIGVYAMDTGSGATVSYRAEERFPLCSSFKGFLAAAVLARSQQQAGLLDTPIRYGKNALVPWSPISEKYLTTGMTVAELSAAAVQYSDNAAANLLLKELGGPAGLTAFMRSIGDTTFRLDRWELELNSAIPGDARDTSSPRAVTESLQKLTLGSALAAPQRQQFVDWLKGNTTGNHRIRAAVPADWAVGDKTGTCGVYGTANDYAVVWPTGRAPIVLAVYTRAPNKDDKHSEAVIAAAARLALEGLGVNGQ
T9 sequence (Q6XEC0 23-265 limits assumed): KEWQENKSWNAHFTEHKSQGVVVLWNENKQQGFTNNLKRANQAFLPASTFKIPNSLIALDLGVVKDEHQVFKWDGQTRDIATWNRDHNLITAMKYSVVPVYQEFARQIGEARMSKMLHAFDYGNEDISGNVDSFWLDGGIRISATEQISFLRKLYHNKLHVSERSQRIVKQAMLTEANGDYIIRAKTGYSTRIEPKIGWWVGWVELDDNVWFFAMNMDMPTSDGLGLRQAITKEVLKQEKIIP
T7 sequence (Q06778 21-266): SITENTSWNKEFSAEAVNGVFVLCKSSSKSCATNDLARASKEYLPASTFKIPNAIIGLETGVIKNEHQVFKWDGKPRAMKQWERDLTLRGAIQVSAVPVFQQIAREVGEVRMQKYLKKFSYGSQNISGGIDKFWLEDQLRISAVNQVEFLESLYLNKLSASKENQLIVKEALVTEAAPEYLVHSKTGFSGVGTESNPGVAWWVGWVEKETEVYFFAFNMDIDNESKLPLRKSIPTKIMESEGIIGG

Regarding `CC(C)(O/N=C(\C(=O)N[C@@H]1C(=O)N2C(C(=O)[O-])=C(C[n+]3ccccc3)CS[C@H]12)c1csc(N)n1)C(=O)O` [CAZ, ceftazidime, reference compound], the MIC in [1] (BAA1898, read-out: MIC CAZ) was 256 µg/mL (≈ 468 µM); in [2], 128 µg/mL; in assay [3], 128 µg/mL; in assay [4], 128 µg/mL; in assay [5], above 128 µg/mL; in [6] (read-out: MIC CAZ) it was 128 µg/mL. Also, the MIC in [7] was above 128 µg/mL; in assay [8], 64 µg/mL; in [9] it was 64 µg/mL; in assay [10], above 128 µg/mL; in assay [11] (read-out: MIC CAZ), 0.5 µg/mL; in assay [12] it was 128 µg/mL. Further, the MIC in assay [13] was above 128 µg/mL; in assay [14] (read-out: MIC CAZ), 256 µg/mL; in [15] (read-out: MIC CAZ), 0.5 µg/mL; in assay [16], 128 µg/mL; in assay [17] (read-out: MIC CAZ), 128 µg/mL; in [18] it was above 128 µg/mL. For the same molecule, the MIC in assay [19] is above 128 µg/mL; in assay [20], above 128 µg/mL; in [21], above 128 µg/mL; in [22] (CIP107051, read-out: MIC CAZ) it was 256 µg/mL; in [23], 2 µg/mL; in [24], 64 µg/mL. Also, the MIC in assay [25] was 32 µg/mL.
`CC(C)(C)OC(=O)NCCn1c2c(sc1=O)C1CN(C2)C(=O)N1OS(=O)(=O)[O-].[Na+]` (stereo not drawn) [Example 3, Sodium [5-(2-(tert-butoxycarbonylamino)ethyl)-4,9-dioxo-3-thia-5,8,10-triaza-tricyclo[6.2.1.0^2.6]undec-2(6)-en-10-yl] sulfate]: the pIC50 in assay [26] is 8.24; in [27] it was 7.70; in assay [28] it was 9.31; in assay [29] it was 8.47; in assay [30], 8.23; in [31], 6.70. The pIC50 in assay [32] is 6.89; in assay [33], 7.80; in assay [34], 7.01; in assay [35] it was 8.77. The MIC in assay [1] (setting [37]), in assay [36], in assay [6] (setting [38]), in assay [11] (setting [38]), in assay [14] (setting [38]) and in assay [15] (setting [38]) was above 32 µg/mL throughout. In addition, the MIC in [17] (setting [38]) and in [22] (setting [39]) was above 32 µg/mL each time. Moreover, the “MIC of CAZ in combination with compound at 4 μg/mL” value was above 128 µg/mL in assay [1], 128 µg/mL in assay [6], 32 µg/mL in assay [17] and 64 µg/mL in assay [22].
As for `N=C(N)NCCn1c2c(sc1=O)C1CN(C2)C(=O)N1OS(=O)(=O)[O-].[Na+]` (stereo not drawn) [Example 6, Sodium and 2,2,2-trifluoroacetate [5-(2-quanidiniumethyl)-4,9-dioxo-3-thia-5,8,10-triaza-tricyclo[6.2.1.0^2.6]undec-2(6)-en-10-yl] sulfate], the pIC50 in assay [26] was 8.15; in assay [27], 7.92; in assay [28], 8.27; in [29], 8.24; in assay [30], 6.42; in [31] it was 5.82. In addition, the pIC50 in [32] was 5.77; in assay [33] it was 6.89; in [34], 6.92; in assay [35] it was 8.80. In addition, the MIC is 16 µg/mL in [1] (setting [37]); 8 µg/mL in assay [36]; 1 µg/mL in assay [6] (setting [38]); above 32 µg/mL in [14] (setting [38]); 4 µg/mL in assay [15] (setting [38]); 1 µg/mL in [17] (setting [38]). Moreover, the MIC in [22] (setting [39]) was 8 µg/mL. Moreover, the “MIC of CAZ in combination with compound at 4 μg/mL” value is at most 0.125 µg/mL in assay [1]; below 0.25 µg/mL in [6]; at most 0.125 µg/mL in [14] (strain 6299, compound fixed at 4 μg/mL); below 0.25 µg/mL in assay [17]; 8 µg/mL in assay [22].

Broadly, the pIC50 is −log10 of the IC50, conventionally taken in molar units. A low value points to a large IC50.
